Source: US9586951B2 (FUJIFILM Corporation, priority 2013, dated 2017)

Target: T1, ATM (Homo sapiens, UniProt Q13315)
T1 construct: detecting phosphorylation of Chk2 in a human non-small cell lung cancer cell line NCI-H460 (ATCC company); host or cells: NCI-H460 human non-small cell lung cancer cells
Assay: ATM inhibition test (phosphorylation of Chk2 generated by ionizing radiation, AlphaScreen SureFire)
Format: cell-based
Conditions: phosphorylated Chk2 in NCI-H460 cells, ionizing radiation 8Gy, 1 hour after test compound treatment; read-out: ATM inhibitory activity
Method in brief: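 In NCI-H460 cells, radiation-triggered Chk2 phosphorylation (8Gy, 1 h) is detected by AlphaScreen SureFire following 1 h compound exposure.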

T1 sequence (Q13315 whole entry): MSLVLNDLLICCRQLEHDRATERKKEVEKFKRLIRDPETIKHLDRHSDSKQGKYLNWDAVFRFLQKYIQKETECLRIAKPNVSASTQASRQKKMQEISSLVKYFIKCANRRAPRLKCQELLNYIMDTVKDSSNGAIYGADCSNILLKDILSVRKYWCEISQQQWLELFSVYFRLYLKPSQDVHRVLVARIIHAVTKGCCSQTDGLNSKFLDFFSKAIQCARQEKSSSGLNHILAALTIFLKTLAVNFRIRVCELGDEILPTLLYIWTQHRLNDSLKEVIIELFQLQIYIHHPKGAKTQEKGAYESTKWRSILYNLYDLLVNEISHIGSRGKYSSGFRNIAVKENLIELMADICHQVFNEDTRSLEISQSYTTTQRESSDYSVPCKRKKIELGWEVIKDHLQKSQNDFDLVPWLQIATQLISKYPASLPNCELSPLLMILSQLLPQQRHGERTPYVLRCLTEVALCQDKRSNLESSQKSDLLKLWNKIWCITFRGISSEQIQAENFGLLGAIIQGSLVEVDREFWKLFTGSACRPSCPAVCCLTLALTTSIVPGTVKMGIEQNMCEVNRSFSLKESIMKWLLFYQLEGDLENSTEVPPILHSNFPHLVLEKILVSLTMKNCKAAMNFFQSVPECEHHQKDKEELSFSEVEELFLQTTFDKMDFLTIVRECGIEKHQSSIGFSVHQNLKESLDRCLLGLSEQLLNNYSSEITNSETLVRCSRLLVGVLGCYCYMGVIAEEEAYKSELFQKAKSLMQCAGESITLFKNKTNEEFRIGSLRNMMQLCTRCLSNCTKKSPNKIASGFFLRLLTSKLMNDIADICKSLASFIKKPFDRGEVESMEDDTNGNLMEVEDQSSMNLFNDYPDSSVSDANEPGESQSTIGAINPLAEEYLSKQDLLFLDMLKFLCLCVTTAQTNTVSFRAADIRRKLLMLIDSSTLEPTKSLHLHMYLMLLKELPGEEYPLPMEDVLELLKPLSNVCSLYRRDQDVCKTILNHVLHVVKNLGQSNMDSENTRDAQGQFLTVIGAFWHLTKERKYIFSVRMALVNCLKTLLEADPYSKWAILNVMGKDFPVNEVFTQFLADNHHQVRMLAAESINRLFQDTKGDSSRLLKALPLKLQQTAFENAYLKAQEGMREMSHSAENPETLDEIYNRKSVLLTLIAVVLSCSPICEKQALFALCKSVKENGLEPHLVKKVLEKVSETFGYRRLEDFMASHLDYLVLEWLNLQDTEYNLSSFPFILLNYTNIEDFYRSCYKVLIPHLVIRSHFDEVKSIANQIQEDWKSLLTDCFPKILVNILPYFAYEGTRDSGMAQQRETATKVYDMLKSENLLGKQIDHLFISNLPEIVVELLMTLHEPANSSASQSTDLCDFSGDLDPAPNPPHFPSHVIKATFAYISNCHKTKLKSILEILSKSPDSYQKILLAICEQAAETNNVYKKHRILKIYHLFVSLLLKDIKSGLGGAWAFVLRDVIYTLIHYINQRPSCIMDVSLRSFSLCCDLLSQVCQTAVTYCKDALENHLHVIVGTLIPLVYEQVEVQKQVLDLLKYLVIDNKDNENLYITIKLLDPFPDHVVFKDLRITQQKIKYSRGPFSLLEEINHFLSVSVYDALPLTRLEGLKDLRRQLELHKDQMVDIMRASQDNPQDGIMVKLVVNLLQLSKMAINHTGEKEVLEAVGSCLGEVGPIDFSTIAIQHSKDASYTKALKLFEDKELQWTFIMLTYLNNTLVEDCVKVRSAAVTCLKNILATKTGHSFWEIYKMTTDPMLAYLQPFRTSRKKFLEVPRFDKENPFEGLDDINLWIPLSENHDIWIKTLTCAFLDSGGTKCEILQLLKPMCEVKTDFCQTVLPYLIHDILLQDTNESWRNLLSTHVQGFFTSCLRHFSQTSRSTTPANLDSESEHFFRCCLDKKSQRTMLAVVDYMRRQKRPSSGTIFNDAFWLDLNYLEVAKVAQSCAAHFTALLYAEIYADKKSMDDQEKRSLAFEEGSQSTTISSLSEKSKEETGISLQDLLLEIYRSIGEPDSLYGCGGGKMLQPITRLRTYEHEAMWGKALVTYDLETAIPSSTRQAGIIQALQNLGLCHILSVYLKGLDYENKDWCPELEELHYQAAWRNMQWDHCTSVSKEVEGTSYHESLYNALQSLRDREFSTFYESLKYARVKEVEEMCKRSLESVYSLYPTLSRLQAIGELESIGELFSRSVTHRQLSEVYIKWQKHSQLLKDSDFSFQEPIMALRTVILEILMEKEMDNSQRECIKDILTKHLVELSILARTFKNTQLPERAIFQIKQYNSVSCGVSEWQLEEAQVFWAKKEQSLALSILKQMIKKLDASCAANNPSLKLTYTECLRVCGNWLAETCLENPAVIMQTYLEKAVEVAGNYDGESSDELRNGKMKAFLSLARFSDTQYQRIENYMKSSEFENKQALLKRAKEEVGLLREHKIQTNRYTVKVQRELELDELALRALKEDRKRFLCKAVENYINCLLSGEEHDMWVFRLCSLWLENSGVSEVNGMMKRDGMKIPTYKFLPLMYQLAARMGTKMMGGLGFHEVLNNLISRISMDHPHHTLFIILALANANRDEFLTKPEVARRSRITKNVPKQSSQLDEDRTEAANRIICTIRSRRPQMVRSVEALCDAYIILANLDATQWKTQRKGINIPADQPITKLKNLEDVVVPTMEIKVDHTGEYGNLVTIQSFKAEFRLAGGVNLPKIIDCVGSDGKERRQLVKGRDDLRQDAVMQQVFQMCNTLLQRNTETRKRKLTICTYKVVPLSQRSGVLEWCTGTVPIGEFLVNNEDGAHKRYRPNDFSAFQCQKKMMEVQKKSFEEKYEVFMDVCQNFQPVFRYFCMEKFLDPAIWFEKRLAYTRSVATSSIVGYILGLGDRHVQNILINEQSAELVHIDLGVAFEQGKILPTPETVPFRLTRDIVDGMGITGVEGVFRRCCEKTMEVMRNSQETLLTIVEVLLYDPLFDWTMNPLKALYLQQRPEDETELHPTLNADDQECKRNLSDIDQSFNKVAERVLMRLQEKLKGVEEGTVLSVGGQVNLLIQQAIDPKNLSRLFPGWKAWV

Row | Compound | IC50
1 | Cc1cccc(C(Nc2ccc3c(c2)Sc2cccc(-c4cc(N5CCOCC5)cc(=O)[nH]4)c2S3)C2CCCNC2)n1 (stereo not shown) [Example 1-20-13, 6-(7-(((6-Methylpyridin-2-yl)(piperidin-3-yl)methyl)amino)thianthren-1-yl)-4-morpholino pyridin-2(1H)-one] | 500 to 2000 nM
2 | CN1CCC(Nc2ccc3c(c2)Cc2cccc(-c4cc(N5CCOCC5)cc(=O)[nH]4)c2S3)CC1 [Example 3-8-13, 6-(7-((1-Methylpiperidin-4-yl)amino)-9H-thioxanthen-4-yl)-4-morpholino pyridin-2 (1H)-one] | 100 to 500 nM
3 | O=c1cc(N2CCOCC2)cc(-c2cccc3c2Oc2ccc(NCc4cscn4)cc2C3)[nH]1 [Example 2-14-36, 4-Morpholino-6-(7-((thiazol-4-ylmethyl)amino)-9H-xanthen-4-yl) pyridin-2(1H)-one] | 100 to 500 nM
4 | CN1CC(CNc2ccc3c(c2)Sc2cccc(-c4cc(N5CCOCC5)cc(=O)[nH]4)c2S3)C1 [Example 1-2-1, 6-(7-(((1-methylazetidin-3-yl)methyl)amino)thianthren-1-yl)-4-morpholinopyridin-2(1H)-one] | 100 to 500 nM
5 | CN1CCC(Nc2ccc3c(c2)Sc2cccc(-c4cc(N5CCOCC5)cc(=O)[nH]4)c2S3)C1 (stereo not shown) [Example 1-31-1, 6-(7-((1-Methylpyrrolidin-3-yl)amino)thianthren-1-yl)-4-morpholinopyridin-2(1H)-one] | 100 to 500 nM
6 | COCC(CN1CCN(C)CC1)Nc1ccc2c(c1)Sc1cccc(-c3cc(N4CCOCC4)cc(=O)[nH]3)c1S2 (stereo not shown) [Example 1-17-3, 6-(7-((1-Methoxy-3-(4-methylpiperazin-1-yl)propan-2-yl)amino)thianthren-1-yl)-4-morpholinopyridin-2(1H)-one] | 100 to 500 nM
7 | Cc1ccc(CN2CCC(Nc3ccc4c(c3)Cc3cccc(-c5cc(N6CCOCC6)cc(=O)[nH]5)c3O4)CC2)cn1 [Example 2-28-10, 6-(7-((1-((6-Methylpyridin-3-yl)methyl)piperidin-4-yl)amino)-9H-xanthen-4-yl)-4-morpholino pyridin-2(1H)-one] | 100 to 500 nM
8 | CC(C)(C)OC(=O)N1CCC(C#N)(Nc2ccc3c(c2)Cc2cccc(-c4cc(N5CCOCC5)cc(=O)[nH]4)c2O3)CC1 [Example 2-26, tert-butyl 4-cyano-4-((5-(4-morpholino-6-oxo-1,6-dihydropyridin-2-yl)-9H-xanthen-2-yl)amino)piperidine-1-carboxylate] | 500 to 2000 nM

The next lines start with the values.

Row | IC50 | Compound
9 | 100 to 500 nM | COc1ccnc(C(C)Nc2ccc3c(c2)Cc2cccc(-c4cc(N5CCOCC5)cc(=O)[nH]4)c2O3)c1 (single isomer, unassigned) [Example 2-14-86-1, 6-(7-((1-(4-methoxypyridin-2-yl)ethyl)amino)-9H-xanthen-4-yl)-4-morpholinopyridin-2(1H)-one]
10 | 100 to 500 nM | CCC(CNc1ccc2c(c1)Sc1cccc(-c3cc(N4CCOCC4)cc(=O)[nH]3)c1S2)N1CCOCC1 (stereo not shown) [Example 1-9-1, 4-morpholino-6-(7-((2-morpholinobutyl)amino)thianthren-1-yl)pyridin-2(1H)-one]
11 | 100 to 500 nM | CC(C)Nc1cncc(CNc2ccc3c(c2)Cc2cccc(-c4cc(N5CCOCC5)cc(=O)[nH]4)c2O3)c1 [Example 2-2-75, 6-(7-(((5-(Isopropylamino)pyridin-3-yl)methyl)amino)-9H-xanthen-4-yl)-4-morpholino pyridin-2(1H)-one]
12 | < 100 nM | Cc1ccc(CNc2ccc3c(c2)Cc2cccc(-c4cc(N5CCOCC5)cc(=O)[nH]4)c2O3)cn1 [Example 2-2-2, 6-(7-(((6-Methylpyridin-3-yl)methyl)amino)-9H-xanthen-4-yl)-4-morpholino pyridin-2 (1H)-one]
13 | < 100 nM | COC1CN(CCC(Nc2ccc3c(c2)Sc2cccc(-c4cc(N5CCOCC5)cc(=O)[nH]4)c2S3)c2ccc(C)cn2)C1 (single isomer, unassigned) [Example 1-51-8, 6-(7-((3-(3-Methoxyazetidin-1-yl)-1-(5-methylpyridin-2-yl)propyl)amino)thianthren-1-yl)-4-morpholino pyridin-2 (1H)-one]
